According to article PMC12374861, “Synthetic Peptides Suppress Nervous Necrosis Virus Absorption and Improve Survival Rates in European Sea Bass” (Marine Biotechnology (New York, N.y.), 2025):
Ends that are not written are not given here.

Experiments:
[1] = test system: SJNNV; assay type: cell-based, striped jack nervous necrosis virus (strain SJNag97); conditions: virus (MOI 0.01) incubated with 500 μg/mL peptide for 15 min at 25 °C, titrated in E-11 cells; control virus + PBS; representative of two independent assays; Fig. 2B
Experimental: Parental RGNNV (strain It/411/96), SJNNV (strain SJNag97), and reassortant isolates (RGNNV/SJNNV, 367.2.2005; SJNNV/RGNNV, 389/I96) were used. Viruses were propagated in E − 11 cells cultured in L-15 Leibovitz medium (BioWest) supplemented with 5% FBS, 2 mM L-glutamine, and 100 IU/mL penicillin/streptomycin (Thermo Fisher Scientific) at 25 °C. Infected monolayers were incubated at 25 °C until extensive cytopathic effect (CPE) developed. Supernatants were then harvested, centrifuged, and titrated in triplicate using the end-point dilution method, expressed as TCID₅₀/mL (Reed and Müench [1938]).
For in vitro antiviral assays, viral cultures (MOI 0.01) from parental and reassortant strains were incubated with peptides (single or combined) using a non-lethal concentration previously tested (500 μg/mL; León et al. [2020]), for 15 min at 25 °C with gentle agitation. Controls were virus samples incubated with PBS (100% viral activity). Treated samples were titrated as previously. After medium removal, cells were exposed to ten-fold viral dilutions in 2% FBS. CPE was monitored daily for 10 days, and viral titres were calculated as TCID₅₀/mL (Reed and Müench [1938]) and expressed as viral titre or percent inhibition relative to controls.
Fig. 2 Designed peptides, single or combined, reduce the NNV absorption in vitro. NNV parental or reassortant genotypes were incubated with 500 μg/mL of the synthetic peptides for 15 min. Then, the viruses were titrated in the E − 11 cell line. Control samples consisted on virus incubated with the same amount of phosphate buffer saline. (A) Viral titer (TCID50/mL) and (B) % of virus inhibition with respect to the controls are represented. Data are representative of two independent assays. […] Each bar was matched to a substance by its colour and by the order of the legend.

[2] = test system: E-11 cells; test: MTT cytotoxicity test on E-11 cells; assay type: cell-based; conditions: 24 h at 25 °C, mean of n = 3, control = 100.0
Experimental: Synthetic peptides cytotoxicity on E − 11 cells was assessed using the MTT (Sigma) test with serial peptide dilutions (1000–4 µg/mL in L − 15 medium; n = 3; 24 h at 25 °C) as elsewhere (Cervera et al. [2024c]). Absorbance was measured at 570 nm (BMG Labtech); blanks lacked cells. Cell viability was calculated as the OD ratio of treated to untreated cells × 100, normalized at 690 nm.
Supplementary data S4: Cell viability (%) of E-11 cells after incubation with the synthetic peptides for 24 h. Data represent the mean ± SEM (n=3).

[3] = test system: RGNNV; test: RGNNV in vivo bath challenge of European sea bass with peptide injection after infection; parameters: species or system European sea bass (Dicentrarchus labrax); conditions: for Clinical signs of VER disease, severity score: four-rank scale 1-4, sea bass, RGNNV bath challenge, 1 µg peptide/g i.m., Fig. 4B; for Relative percent survival (RPS): juvenile sea bass, bath infection 3.16 × 10^4 TCID₅₀ RGNNV/mL for 2 h, then intramuscular injection 1 µg peptide/g, 23 dpi, infected PBS group 63.6% survival; for RGNNV rdrp gene expression in the brain: Fig. 5B
Experimental: RGNNV In vivo Challenge of European Sea Bass
A total of 375 sea bass were randomly assigned to eight experimental groups (in duplicate) and acclimated for 15 days. Seven groups were infected by immersion (10 L; 3.16 × 10^4 TCID₅₀ RGNNV/mL; 2 h), while a mock-infected control received conditioned medium. […] Combinations were selected according to the results obtained in the competitive in vitro assay against RGNNV (see below). Disease signs and mortalities were monitored daily for 23 days post-infection (dpi) using a four-rank scale (Valero et al. [2021a]). Fish (n = 6/group/time-point) were sampled at 2 and 23 dpi, euthanized with clove oil, bled, and weighed. Brain, NNV target tissue, and head-kidney, major hematopoietic tissue in fish, were dissected, frozen in TRIzol (Life Technologies), and stored at − 80 °C.
For viral load analysis, total RNA was extracted from sea bass brain and head-kidney using TRIzol (Life Technologies) and from E − 11 cells using the GenJET RNA Purification Kit (Thermo Fisher Scientific), following manufacturer protocols. One microgram of RNA was DNAse I-treated (1 U/µL; Thermo Scientific), and cDNA was synthesized using Superscript IV Reverse Transcriptase (Invitrogen). qPCR was performed on a QuantStudio 5 Flex (Applied Biosystems) to quantify cp, rdrp and mx genes using PowerUp SYBR Green reagents (Applied Biosystems). The protocol included a 95 °C hold, then 40 cycles (95 °C; 15 s) and 60 °C for 1 min. Relative expression was calculated using the 2^⁻ΔCt method (Livak and Schmittgen [2001]), with ef1a as the endogenous control. Primers (Supplementary Data S2) were validated by melting curve analysis and negative controls.
Fish mortality was analysed using Kaplan–Meier survival curves with log-rank (Mantel–Cox) tests for significance. Relative gene expression was evaluated by one-way ANOVA (p ≤ 0.05) followed by Tukey’s test. Viral kinetics were compared between P4-treated and untreated groups using Student’s t-test (p ≤ 0.05) at specific time points. All analyses were performed with IBM SPSS Statistics 20.
Fig. 4 Therapeutic administration of synthetic peptides improves survival and symptomatology in […] (RGNNV)-infected European sea bass juveniles. […] A mock-infected group was treated twice with only PBS. (A) Kaplan–Meier survival curves; (B) Heat-map representing the cumulated number of fish showing clinical signs of VER disease attending to their severity: (1) changes of the color of the skin, slower rhythm of swimming and/or slower reaction to external stimuli as feeding; (2) alterations in the swimming balance and/or erratic swimming spasms; (3) continuous erratic swimming; and (4) complete incapacity to keep balance, swim and/or move without external stimuli. VER, viral encephalopathy and retinopathy
Fig. 5 Therapeutic administration of synthetic peptides decreased viral loads in the brain without additional mx gene regulation in the sea bass juveniles head-kidney infected with red-spotted grouper nervous necrosis virus (RGNNV). […] A mock-infected group was treated twice with only PBS. (A–C) Transcription levels of RGNNV cp (A) and rdrp (B) genes in the brain and (C) mx gene in the head-kidney. Data represent the relative gene expression mean ± SEM (n = 6). Different letters indicate significant differences among groups according to the ANOVA (p < 0.05)

[4] = test system: RGNNV; test: RGNNV adsorption efficiency, progeny production and replication kinetics in P4 pre-treated E-11 cells; assay type: cell-based, red-spotted grouper nervous necrosis virus
Experimental: Based on in vivo results (see below), the P4 effect on RGNNV replication was further assessed by analysing viral adsorption efficiency and progeny production, as previously (Valero et al. [2021b]) with slight modifications. Intracellular and extracellular viral kinetics were examined using semi-confluent E − 11 monolayers in 12-well plates (Sarstedt) treated with P4 (500 µg/mL) for 24 h; untreated cells served as controls. After treatment, supernatants were removed, cells washed thrice, and infected with RGNNV (MOI 0.01) for 45 min. Residual inoculum was collected, and monolayers washed and overlaid with L-15 for incubation at 25 °C with daily CPE monitoring. Supernatants were collected at 8, 12, 24, and 48 h post-infection (hpi); cells were washed, scraped and stored. For extracellular kinetics, supernatants were collected until 168 hpi. All samples were clarified by centrifugation (2000 × g, 10 min). Titrations were performed for: (i) total inoculated virus (TIV), (ii) non-attached virus (NAV), and (iii) viral progeny (VP). Assays were conducted in triplicate.
Formulas used for impact of synthetic peptides on RGNNV replication in vitro assay are the following: • AbsorbedvirusAV=TIV-NAV • AdsorptionefficacyAE=AV/TIV×100 • Productionrate(PR)=VP/AV • Relativeratioofproduction(RRP)=PRP4+RGNNV/PRRGNNV
Fig. 3 The pre-treatment with P4 synthetic peptide partially disrupts the replication of RGNNV in vitro. (A) Intracellular replication kinetics; (B) Viral production in cell supernatants; and (C, D) Genome synthesis in cell lysates by means of transcriptional levels of rdrp (C) and cp (D) genes. Monolayers of E-11 were incubated with 500 µg/mL of P4 or untreated for 24 h and then infected with […] nervous necrosis virus (RGNNV) (n = 3). Supernatants and cell lysates were collected at 8, 12, 24, 48 h post-infection (hpi). Additionally, supernatants were sampled at 168 hpi for extracellular replication kinetic analysis. Infectious titers were determined by the end-point titration method (Reed and Müench [1938]) and expressed as mean Log10 TCID50/mL ± standard error of the mean (SEM). Relative expression was presented as the mean ± SEM (n = 3). Asterisks indicate significant differences among groups according to the Student-t test (p < 0.05)

[5] = qPCR relative to ef1a, 2 dpi, n = 6, 1 µg peptide/g i.m. after RGNNV bath challenge

Substance	% of virus inhibition with respect to the controls, SJNNV [1]	Viability (%) of E-11 cells, mean ([2]; peptide 0.00411 mg/mL)	Viability (%) of E-11 cells, mean ([2]; peptide 0.01234 mg/mL)	Viability (%) of E-11 cells, mean ([2]; peptide 0.03704 mg/mL)	Viability (%) of E-11 cells, mean ([2]; peptide 0.11111 mg/mL)	Viability (%) of E-11 cells, mean ([2]; peptide 0.33333 mg/mL)	Viability (%) of E-11 cells, mean ([2]; peptide 1.00000 mg/mL)	Clinical signs of VER disease, severity score [3]	Relative percent survival (RPS) [3]	RGNNV cp gene expression in the brain ([3]; qPCR relative to ef1a, 2 dpi, n = 6, 1 µg peptide/g i.m. after RGNNV bath challenge, Fig. 5A)	RGNNV rdrp gene expression in the brain [3, 5]	AE, adsorption efficiency ([4]; AE = AV/TIV × 100, E-11 cells pre-treated with P4 500 µg/mL 24 h, untreated cells 99.05%)	Intracellular viral replication titre at 48 h post-infection ([4]; E-11 cells pre-treated with P4 500 µg/mL 24 h, RGNNV, cell lysates, 48 hpi, untreated cells 2.40 × 10⁶, n = 3, Fig. 3A)	Viral release in cell supernatants at 48 h post-infection ([4]; E-11 cells pre-treated with P4 500 µg/mL 24 h, RGNNV, supernatants, 48 hpi, untreated cells 6.77 × 10^4, n = 3, Fig. 3B)	Viral progeny (VP) ([4]; E-11 cells pre-treated with P4 500 µg/mL 24 h, then RGNNV MOI 0.01, untreated cells 1.40 × 10^8)	Attached virus (AV), Log ± SEM ([4]; E-11 cells pre-treated with P4 500 µg/mL for 24 h, then RGNNV MOI 0.01 for 45 min, triplicate)	Attached virus (AV) ([4]; E-11 cells pre-treated with P4 500 µg/mL for 24 h, washed, infected with RGNNV MOI 0.01 for 45 min, AV = TIV − NAV, triplicate, untreated cells 9.20 × 10^5 in Table 2)	PR, production rate ([4]; PR = VP/AV, P4 pre-treated E-11 cells, untreated cells 151.57)	RRP, relative ratio of production ([4]; RRP = PR(P4+RGNNV)/PR(RGNNV))
TTKAANPQPRRRANNRRRS-NH2 [Peptide P1]	90%	123.5%	129.9%	100.1%	96.6%	109.3%	91.5%	–	–	–	–	–	–	–	–	–	–	–	–
ALQATRGAVVAKWW-NH2 [Peptide P5]	–	126.6%	116.7%	116.4%	122.7%	104.3%	115.8%	–	–	–	–	–	–	–	–	–	–	–	–
PDPTDNDHTFD-NH2 [Peptide P4]	–	87.4%	102.6%	92.4%	110.6%	100.5%	106.4%	1	81.3%	lowered	lowered	98.99%	1.64 × 10^4 TCID₅₀/mL	3.36 × 10^3 TCID₅₀/mL	2.46 × 10^7 TCID50/mL	5.96 ± 0.005	9.21 × 10^5 TCID50/mL	26.76	0.18
LLWTSSGKEQR-NH2 [Peptide P6]	90%	157.5%	139.2%	138.9%	152.9%	146.5%	128.1%	–	–	–	–	–	–	–	–	–	–	–	–
SVRLSVPSLETPEETTA-NH2 [Peptide P7]	90%	149.6%	125.7%	138.9%	116.6%	119.8%	131.6%	≤ 4	68.8%	–	effectively blocked	–	–	–	–	–	–	–	–
